Assay results: EP0362382A1, “METHOD OF STERILIZING PLANT POLLEN” (VSESOJUZNY NAUCHNO-ISSLEDOVATELSKY INST. SELSKOKHOZYAISTV. …, priority 1988, dated 1989)

The compounds below were run on diploidem Roggen (assay: Field test of gametocidal activity (sterilisation of anthers), diploid rye). Settings: Sorte Gibrid 1861/79; V. und VI. Periode der Organogenese; 1%ige wäßrige Emulsion; 8 kg/ha.
Format: in vivo
Source text: (§1) Die gametozide Aktivitat der erfindungsgemäßen Sterilisationsmittel war im Feldversuch in verschiedenen bodenklimatischen Zonen mit Teilstücken von 10 m^2 Größe in drei- bis viermaliger Wiederholung festgestellt. Jedes Sterilisationsmittel wurde mindenstens 5 Jahre lang geprüft.
(§2) Die Entwicklung der Perioden der Organogenese wird zytologisch überwacht. Die Behandlung von Pflanzen mit dem Sterilisationsmittel erfolgt am Anfang der fünften Periode der Organogenese nach Kupermann.
(§3) Mit dem Ährenschieben verwirklicht man die Isolierung von Hauptähren und anderen Stockwerken in Pergamentbeuteln. Bei Weizen und Tritikale werden Einzelisolatoren benutzt. Bei Roggen schließt man je Ähre 5 bis 7 verschiedene nebeneinander befindliche Pflanzen unter einen gemeinsamen Isolator ein. Bei Hierse wird jede Rispe getrennt isoliert. Der Sterilitätsprozentsatz (X) für Weizen, Roggen, Tritikale und Hirse wird nach der Formel [formula] ermittelt.
(§4) Die Kornzahl in nicht isolierten Ähren von Kontrollpflanzen wird bedingt für 100 % Ansetzen bei freier Bestäubung angenommen.
(§5) Um zuverlässige Angaben zu erhalten, verwendet man 20 bis 25 Isolatoren jeder Wiederholung für Weizen und Tritikale, 10 .bis 15 Isolatoren jeder Wiederholung für Roggen und Hirse.
Pflanzen von diploidem Roggen Sorte Wosohod 2 werden in der V. Periode der Organogenese (nach Kupermann) mit 1%iger wäßriger Emulsion von Bis(di-n-butyläther) der δ, δ' -Thiodivaleriansäure, 4-Krboxybutyldezylsulfid, Natriumsalz der δ, δ' -Thiodivaleriansäure, Bis(2-äthylhexyläther) der δ, δ' -Thiodivaleriansäure, δ, δ' -Sulfonyldivaleriansäure, Natriumsalz der δ, δ'-Sulfonyldivaleriansäure, Kaliumsalz der δ, δ' -Sulfonyldivaleriansäure behandelt. Die Emulsion enthält 0,1 Masse% […] mit 12 bis 14 Kohlenstoffatomen und 0,01 Masse% Tetrahydrofuran. Der Verbrauch an Präparat beträgt 6 kg/ha. Als Kontrolle dienen Pflanzen, behandelt mit einem Verdünner ohne Sterilisationsmittel.
Pflanzen von diploidem Roggen Sorte Gibrid 1861/79 werden in der V. und VI. Periode der Organogenese (nach Kupermann) mit 1%iger wäßriger Emulsion von Bis(di-n-butyläther) der δ, δ' -Thiodivaleriansäure, δ, δ' -Thiodivaleriansäure, Natriumsalz der δ δ' -Thiodivaleriansäure, 4-Karboxybutyldezylsulfid, δ , δ' -Sulfonyldivaleriansäure, Kaliumsalz der δ, δ' -Sulfonyldivaleriansäuleriansäure, Kaliumalz der δ' -Sulfonyldivaleriansäure, Bis(2-äthylhexyläther) der δ, δ' -Thiodivaleriansäure behandelt. Die Emulsion enthält 0,1 Masse% Kalziumalkylbenzolsulfonat mit 12 bis 14 Kohlenstoffatomen und 0,01 Masse% Dimethylformamid. Der Verbrauch an Präparat beträgt 8 kg/ha. Als Kontrolle dienen Pflanzen, behandelt mit einem Verdünner ohne Sterilisationsmittel. Die Prüfergebnisse sind in der Tabelle 10 angegeben.
With `O=C(O)CCCCS(=O)(=O)CCCCC(=O)O` [Beispiel 48, δ , δ' -Sulfonyldivaleriansäure] the “Anzahl von Körnern der Ähre bei freier Bestäubung” value was 54,7, the “Anzahl von Körnern der Ähre im Isolator” value was 0,0 and the “Prozentsatz der Sterilität” value was 100,0%. For the same compound, the “Prozentsatz des Ansetzens von Körnern bei freier Bestäubung” value was 87,1%. With `O=C(O)CCCCS(=O)(=O)CCCCC(=O)O` [Beispiel 49, Kaliumsalz der δ, δ' -Sulfonyldivaleriansäuleriansäure] the “Anzahl von Körnern der Ähre bei freier Bestäubung” value was 57,0, the “Anzahl von Körnern der Ähre im Isolator” value was 0,0 and the “Prozentsatz der Sterilität” value was 100,0%. For the same compound, the “Prozentsatz des Ansetzens von Körnern bei freier Bestäubung” value was 90,8%. `CCCCC(CC)COC(=O)CCCCSCCCCC(=O)OCC(CC)CCCC` (stereo not drawn) [Beispiel 50, Bis(2-äthylhexyläther) der δ, δ' -Thiodivaleriansäure] was tested, and the “Anzahl von Körnern der Ähre bei freier Bestäubung” value was 53,2, the “Anzahl von Körnern der Ähre im Isolator” value was 0,0 and the “Prozentsatz der Sterilität” value was 100,0%. For the same compound, the “Prozentsatz des Ansetzens von Körnern bei freier Bestäubung” value was 84,7%.

What follows are compounds tested on tetraploidem Roggen (assay: Field test of gametocidal activity (sterilisation of anthers), tetraploid rye). Settings: Sorte Belta; V. Periode der Organogenese; 1%ige wäßrige Emulsion; 6 kg/ha.
Format: in vivo
Source text: as §1, §2, §3, §4, §5
Pflanzen von tetraploidem Roggen Sorte Belta werden in der V. Periode der Organogenese (nach Kupermann) mit 1%iger wäßriger Emulsion von d, δ' -Thiodivaleriansäure, Natriumsalz der δ, δ' -Thiodivaleriansäure, δ, δ' -Sulfonylvaleriansäure, Natriumsalz der δ, δ' -Sulfonyldivaleriansäure, Kaliumsalz der d, δ' -Sulfonyldivaleriansäure, Bis(di-n-butyläther) der δ, δ' -Thiodivaleriansäure, Bis(2-Äthylhexyläther) der δ, δ'-Thiodivaleriansäure, 4-Karboxybutyldezylsulfid behandelt. Die Emulsion enthält 0,1 Masse% Kalziumalkylbenzolaulfonat und 0,01 Masse% Dimethylsulfoxid. Der Verbrauch an Präparat beträgt 6 kg/ha. Als Kontrolle dienen Pflanzen, behandelt mit einem Verdünner ohne Sterilisationsmittel. Die Prüfergebnisse sind in der Tabelle 11 angegeben. […] Periode der Organogese erhalten.
With `O=C(O)CCCCSCCCCC(=O)O` [Beispiel 51, d, δ' -Thiodivaleriansäure] the “Anzahl von Körnern der Ähre bei freier Bestäubung” value was 32,9, the “Anzahl von Körnern der Ähre im Isolator” value was 0,3 and the “Prozentsatz der Sterilität” value was 99,3%. For the same compound, the “Prozentsatz des Ansetzens von Körnern bei freier Bestäubung” value was 74,4%. For `O=C(O)CCCCSCCCCC(=O)O` [Beispiel 52, Natriumsalz der δ, δ' -Thiodivaleriansäure], the “Anzahl von Körnern der Ähre bei freier Bestäubung” value was 40,6, the “Anzahl von Körnern der Ähre im Isolator” value was 0,1 and the “Prozentsatz der Sterilität” value was 99,8%. For the same compound, the “Prozentsatz des Ansetzens von Körnern bei freier Bestäubung” value was 91,8%. For `O=C(O)CCCCS(=O)(=O)CCCCC(=O)O` [Beispiel 53, δ, δ' -Sulfonylvaleriansäure], the “Anzahl von Körnern der Ähre bei freier Bestäubung” value was 39,0, the “Anzahl von Körnern der Ähre im Isolator” value was 0,0 and the “Prozentsatz der Sterilität” value was 100,0%. For the same compound, the “Prozentsatz des Ansetzens von Körnern bei freier Bestäubung” value was 88,2%. With `O=C(O)CCCCS(=O)(=O)CCCCC(=O)O` [Beispiel 54, Natriumsalz der δ, δ' -Sulfonyldivaleriansäure] the “Anzahl von Körnern der Ähre bei freier Bestäubung” value was 34,6, the “Anzahl von Körnern der Ähre im Isolator” value was 0,0 and the “Prozentsatz der Sterilität” value was 100,0%. For the same compound, the “Prozentsatz des Ansetzens von Körnern bei freier Bestäubung” value was 78,2%. `O=C(O)CCCCS(=O)(=O)CCCCC(=O)O` [Beispiel 55, Kaliumsalz der d, δ' -Sulfonyldivaleriansäure] was tested, and the “Anzahl von Körnern der Ähre bei freier Bestäubung” value was 34,0, the “Anzahl von Körnern der Ähre im Isolator” value was 0,0 and the “Prozentsatz der Sterilität” value was 100,0%. The “Prozentsatz des Ansetzens von Körnern bei freier Bestäubung” value was 76,9%. In the case of `CCCCOC(=O)CCCCSCCCCC(=O)OCCCC` [Beispiel 56, Bis(di-n-butyläther) der δ, δ' -Thiodivaleriansäure], the “Anzahl von Körnern der Ähre bei freier Bestäubung” value is reported as 38,2, the “Anzahl von Körnern der Ähre im Isolator” value is reported as 0,0 and the “Prozentsatz der Sterilität” value is reported as 100,0%. For the same compound, the “Prozentsatz des Ansetzens von Körnern bei freier Bestäubung” value was 86,7%. `CCCCC(CC)COC(=O)CCCCSCCCCC(=O)OCC(CC)CCCC` (stereo not drawn) [Beispiel 57, Bis(2-Äthylhexyläther) der δ, δ'-Thiodivaleriansäure] was tested, and the “Anzahl von Körnern der Ähre bei freier Bestäubung” value was 42,7, the “Anzahl von Körnern der Ähre im Isolator” value was 0,0 and the “Prozentsatz der Sterilität” value was 100,0%. The “Prozentsatz des Ansetzens von Körnern bei freier Bestäubung” value was 96,6%. `CCCCCCCCCCSCCCCC(=O)O` [Beispiel 58, 4-Karboxybutyldezylsulfid] was tested, and the “Anzahl von Körnern der Ähre bei freier Bestäubung” value was 40,3, the “Anzahl von Körnern der Ähre im Isolator” value was 0,0 and the “Prozentsatz der Sterilität” value was 100,0%. The “Prozentsatz des Ansetzens von Körnern bei freier Bestäubung” value was 91,2%.

The compounds below were run on Hirse (assay: Field test of gametocidal activity (sterilisation of anthers), millet). Settings: Sorte K9009, Poltawskaja oblast; V. Periode der Organogenese; 1%ige wäßrige Emulsion; 6 kg/ha.
Format: in vivo
Source text: as §1, §2, §3, §4, §5
Pflanzen der Hirse Sorte Mironowskoe 94 werden in der V. Periode der Organogenese (nach Kupermann) mit 1%iger wäßriger Emulsion von 4-Karboxybutyldezylsulfid, δ, δ' -Sulfonyldivaleriansäure, Bis(2-äthylhexyläther) der δ, δ' -Thiodivaleriansäure behandelt. Die Emulsion enthält 0,1 Masse% Kalziumalkylbenzolsulfonat mit 12 bis 14 Kohlenstoffatomen und 0,01 Masse% Dodezylsulfat. Der Verbrauch an Präparat beträgt 10 kg/ha. Als Kontrolle dienen Pflanzen, behandelt mit einem Verdünner ohne Sterilieationsmittel. Die Prüfergebnisse sind in der Tabelle 14 angegeben. […] Periode der Organogenese erhalten.
Pflanzen der Hirse Sorte K9009, Poltawskaja oblast (Poltawaer Gebiet) werden in der V.Periode der Organogenese (nach Kupermann) mit 1%iger wäßriger Emulsion von δ, δ' Thiodivaleriansäure, Natriumsälz der δ, δ'- -Thiodivaleriansäure, δ, δ' -Sulfonyldivaleriansäure, Bis([…]) der d, δ' -Thiodivaleriansäure, 4-Karboxybutyldezylsulfid behandelt. Die Emulsion enthält 0,1 Masse% Kalziumalkylbenzolsulfonat mit 12 bis 14 Kohlenstoffatomen und 0,01 Masse% Tetrahydrofuran, Der Verbrauch an Präparat beträgt 6 kg/ha. Als Kontrolle dienen . Pflanzen, behandelt mit einem Verdünner ohne Sterilisationsmittel. Die Prüfergebnisse sind in der Tabelle 15 angegeben. […] Periode der Organogenese erhalten.
Pflanzen der Hirse Sorte K-9693 Kormowoe 1 werden in der V. Periode der Organogenese (nach Kupermann) mit l%iger wäßriger Emulsion von Bis(di-n-butyläther) der δ, δ' -Thiodivaleriansäure, Natriumsalz der δ, δ' -Sulfonyldivaleriansäure behandelt. Der Verbrauch an Präparat beträgt 6 kg/ha. Als Kontrolle dienen Pflanzen, behandelt mit einem Verdünner ohne Sterilisationsmittel. Die Prüfergebnisse sind in der Tabelle 16 angegeben. […] Periode der Organogenese erhalten.
In the case of `O=C(O)CCCCSCCCCC(=O)O` [Beispiel 68, δ, δ' Thiodivaleriansäure], the “Anzahl von Körnern der Rispe bei freier Bestäubung” value is reported as 101,4, the “Anzahl von Körnern der Rispe im Isolator” value is reported as 0,0 and the “Prozentsatz der Sterilität” value is reported as 100,0%. The “Prozentsatz des Ansetzens von Körnern bei freier Bestäubung” value was 78,1%. `O=C([O-])CCCCSCCCCC(=O)[O-].[Na+].[Na+]` [Beispiel 69, Natriumsälz der δ, δ'- -Thiodivaleriansäure] was tested, and the “Anzahl von Körnern der Rispe bei freier Bestäubung” value was 105,1, the “Anzahl von Körnern der Rispe im Isolator” value was 0,0 and the “Prozentsatz der Sterilität” value was 100,0%. The “Prozentsatz des Ansetzens von Körnern bei freier Bestäubung” value was 81,2%. In the case of `O=C(O)CCCCS(=O)(=O)CCCCC(=O)O` [Beispiel 70, δ, δ' -Sulfonyldivaleriansäure], the “Anzahl von Körnern der Rispe bei freier Bestäubung” value is reported as 77,1, the “Anzahl von Körnern der Rispe im Isolator” value is reported as 0,0 and the “Prozentsatz der Sterilität” value is reported as 100,0%. The “Prozentsatz des Ansetzens von Körnern bei freier Bestäubung” value was 60,0%. With `CCOCCOC(=O)CCCCSCCCCC(=O)OCCOCC` [Beispiel 71, Bis(2-äthylglykoläther) der d, δ' -Thiodivaleriansäure] the “Anzahl von Körnern der Rispe bei freier Bestäubung” value was 112,0, the “Anzahl von Körnern der Rispe im Isolator” value was 0,0 and the “Prozentsatz der Sterilität” value was 100,0%. For the same compound, the “Prozentsatz des Ansetzens von Körnern bei freier Bestäubung” value was 86,6%. With `CCCCCCCCCCSCCCCC(=O)O` [Beispiel 72, 4-Karboxybutyldezylsulfid] the “Anzahl von Körnern der Rispe bei freier Bestäubung” value was 100,7, the “Anzahl von Körnern der Rispe im Isolator” value was 0,0 and the “Prozentsatz der Sterilität” value was 100,0%. For the same compound, the “Prozentsatz des Ansetzens von Körnern bei freier Bestäubung” value was 77,8%.

Same assay, conditions: Sorte K-9693 Kormowoe 1; V. Periode der Organogenese; 1%ige wäßrige Emulsion; 6 kg/ha
With `O=C([O-])CCCCS(=O)(=O)CCCCC(=O)[O-].[Na+].[Na+]` [Beispiel 74, Natriumsalz der δ, δ' -Sulfonyldivaleriansäure] the “Anzahl von Körnern der Rispe bei freier Bestäubung” value was 103,5, the “Anzahl von Körnern der Rispe im Isolator” value was 0,0 and the “Prozentsatz der Sterilität” value was 100,0%. For the same compound, the “Prozentsatz des Ansetzens von Körnern bei freier Bestäubung” value was 70,5%. In the case of “Bis(di-n-butyläther) der δ, δ' -Thiodivaleriansäure [Beispiel 73]”, the “Anzahl von Körnern der Rispe bei freier Bestäubung” value is reported as 122,1, the “Anzahl von Körnern der Rispe im Isolator” value is reported as 0,0 and the “Prozentsatz der Sterilität” value is reported as 100,0%. The “Prozentsatz des Ansetzens von Körnern bei freier Bestäubung” value was 83,2%.

Same assay, conditions: Sorte Mironowskoe 94; V. Periode der Organogenese; 1%ige wäßrige Emulsion; 10 kg/ha
With `CCCCCCCCCCSCCCCC(=O)O` [Beispiel 65, 4-Karboxybutyldezylsulfid] the “Anzahl von Körnern der Rispe bei freier Bestäubung” value was 323,7, the “Anzahl von Körnern der Rispe im Isolator” value was 0,0 and the “Prozentsatz der Sterilität” value was 100,0%. For the same compound, the “Prozentsatz des Ansetzens von Körnern bei freier Bestäubung” value was 88,3%. With `O=C(O)CCCCS(=O)(=O)CCCCC(=O)O` [Beispiel 66, δ, δ' -Sulfonyldivaleriansäure] the “Anzahl von Körnern der Rispe bei freier Bestäubung” value was 336,8, the “Anzahl von Körnern der Rispe im Isolator” value was 0,0 and the “Prozentsatz der Sterilität” value was 100,0%. For the same compound, the “Prozentsatz des Ansetzens von Körnern bei freier Bestäubung” value was 91,9%. In the case of `CCCCC(CC)COC(=O)CCCCSCCCCC(=O)OCC(CC)CCCC` (stereo not drawn) [Beispiel 67, Bis(2-äthylhexyläther) der δ, δ' -Thiodivaleriansäure], the “Anzahl von Körnern der Rispe bei freier Bestäubung” value is reported as 312,8, the “Anzahl von Körnern der Rispe im Isolator” value is reported as 0,0 and the “Prozentsatz der Sterilität” value is reported as 100,0%. The “Prozentsatz des Ansetzens von Körnern bei freier Bestäubung” value was 85,3%.
